In patent US20240192233A1, “DRUG DISCOVERY ASSAY TO SCREEN FOR COMPOUNDS” (FUNDACIÓ INSTITUT DE RECERCA BIOMÈDICA (IRB BARCELONA), priority 2021, published 2024):

How the values were obtained:
Assay type in all cases: biochemical
AR-NTD [1] = molecular target: T1, AR-NTD (Homo sapiens, UniProt P10275); experiment: Screening with the condensation assay, amplitude of the absorbance as parameter; details: screening concentration 100 μM; references DMSO and EPI-001 at 200 μM; mean of 3 measurements
T1 construct: a domain of the androgen receptor localised at its N-terminus, amino acids 1-558
T1 sequence (P10275 1-558): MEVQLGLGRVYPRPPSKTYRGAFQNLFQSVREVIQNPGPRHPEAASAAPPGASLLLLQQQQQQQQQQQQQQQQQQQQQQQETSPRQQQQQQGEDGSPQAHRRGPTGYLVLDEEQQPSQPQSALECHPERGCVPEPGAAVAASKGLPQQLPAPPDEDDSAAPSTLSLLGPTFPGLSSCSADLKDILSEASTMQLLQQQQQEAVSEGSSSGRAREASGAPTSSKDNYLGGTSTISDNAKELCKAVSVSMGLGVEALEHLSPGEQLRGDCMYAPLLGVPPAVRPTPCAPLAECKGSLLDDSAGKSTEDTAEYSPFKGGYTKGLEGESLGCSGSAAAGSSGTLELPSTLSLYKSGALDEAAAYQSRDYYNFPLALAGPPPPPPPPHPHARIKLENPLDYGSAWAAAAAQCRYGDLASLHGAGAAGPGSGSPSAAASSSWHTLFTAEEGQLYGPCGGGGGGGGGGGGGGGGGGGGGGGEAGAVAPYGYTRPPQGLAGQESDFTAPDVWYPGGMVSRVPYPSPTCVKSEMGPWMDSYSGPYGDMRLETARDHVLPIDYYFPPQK
Method: FIG. 9. Results of screening for molecules using the condensation assay with amplitude of the absorbance as a parameter determining the activity of tested molecules. First two bars show data points corresponding to the controls that are used to calculate the activity: negative reference (DMSO), positive reference (EPI-001 at 200 μM). The rest of the bars corresponds to the activity of three screened molecules at a screening concentration 100 μM. […] Mean values of 3 measurements and the standard deviation are plotted.
Please note that, with reference to this aspect of the invention, the inventors have shown that this parameter could also be used to select hits (see FIG. 9).

AR-NTD [2] = molecular target: T1, AR-NTD; experiment: Temperature-dependent turbidity shift assay (TSA), critical temperature Tc; details: 500 mM NaCl
Method: FIG. 6. a) Apparent absorbance (at λ=350 nm) measurement at increasing temperatures of 30 μM ARNTD in 20 mM Hepes 7.4, 500 mM NaCl, 2 mM TCEP buffer in the absence (grey) and presence of 5 eq of EPI-001 (red) or BADGE (green). Dashed lines indicate condensation onset and calculated Tc values are depicted in the insert. b) Tc obtained using the TSA assay of AR-NTD at different concentrations in 20 mM Hepes 7.4, 500 mM NaCl, 2 mM TCEP buffer in the absence (grey) and presence of 5 eq of EPI-001 (red) or BADGE (green). Mean values of 3 independent measurements and the standard deviation are plotted.
To quantify the effects of EPI-001 on the AR-NTD phase separation, we implemented a temperature-dependent turbidity shift assay (TSA). In this assay we measure the sample turbidity as a reporter of condensation and determine the temperature at which a given sample demixes, the Critical Temperature. When droplets are formed, they scatter light and cause an abrupt increase in turbidity. Therefore, values above 0 absorbance units (AU) in the TSA assay indicate condensation. We measure turbidity as the apparent absorbance at a wavelength in which the absorption of the other components in the sample is minimal, in our case 350 nm. Addition of 5 equivalents (eq) of EPI-001 to a 30 μM AR-NTD and 500 mM NaCl sample lowered the Tc of the AR-NTD by 10° C. (FIG. 5a). […]

AR-NTD [3] = molecular target: T1, AR-NTD; experiment: Screening with the condensation (TSA) assay, percentage of shift versus reference shift; details: screening concentration 100 μM; negative reference DMSO; mean of 3 measurements
Method: FIG. 7. […] First two bars show data points corresponding to the controls that are used to calculate the activity: Negative reference (DMSO), Positive reference (EPI-001 at 200 μM). […] Mean values of 3 measurements and the standard deviation are plotted.
In this sense, in FIG. 7 the first two bars show data points corresponding to the controls that are used to calculate the activity: • Negative reference—DMSO • Positive reference—EPI-001 at 200 μM
Briefly, in order to quantitatively rank the tested compounds with regards to their efficacy to enhance the AR-NTD condensation in vitro and compare it to that of EPI-001, we measured the cloud point temperature (Tc) of each of the samples at constant protein concentration (100 μM). Then, we calculated the percentage of shift caused by the compound in comparison to the reference shift, the one caused by 200 μM EPI-001. Next, we plotted the normalised shift versus the compound concentration.

SMILES	hit classification by activity based on amplitude of the absorbance, cut-off 25% (AR-NTD [1])	enhancement of AR-NTD condensation at all protein concentrations tested (left arm of phase diagram) (AR-NTD [2]; 5 eq of compound, various AR-NTD concentrations)	lowering of the Tc of the AR-NTD (AR-NTD [2]; 5 equivalents of compound, 30 μM AR-NTD, absorbance at 350 nm) [°C]	hit classification by activity (percentage of Tc shift relative to 200 μM EPI-001), cut-off 25% (AR-NTD [3])
CC(C)(c1ccc(OCC2CO2)cc1)c1ccc(OCC2CO2)cc1 (stereo not drawn) [BADGE]	inactive	not	3	non-hit
CC(C)(c1ccc(OC[C@H](O)CNS(C)(=O)=O)cc1)c1cc(Cl)c(OC[C@H](O)CCl)c(Cl)c1 [EPI-7170]	hits			hits
